Among the data in PubChem BioAssay AID488890 (Southern Research Specialized Biocontainment Screening …, 2010) are IC50 values, retold here.

Inconclusive results are not listed. Activity calls are given as the source filed them. The rule behind the calls is not given here.

The test system of this assay is Mycobacterium tuberculosis non-replicating, growth inhibition. Description: growth inhibition of non-replicating M. tuberculosis (AID 488890).
Consider `CC(NCC(O)COCCC12CC3CC(CC(C3)C1)C2)c1ccccc1` (stereo unspecified), for which the IC50 was 7.88 µM.
The figure for `O=C(Nc1sc2c(c1C(=O)O)CCCC2)c1ccc(F)cc1` is 24.3 µM (inactive); for `C=CCc1ccc(OCC(O)CN2CCN(Cc3ccc(Cl)cc3)CC2)c(OC)c1` (stereo unspecified) it is 15.7 µM (inactive).
The figure for `O=c1oc(-c2ccccc2[N+](=O)[O-])nc2ccccc12` is 18.9 µM (inactive).
Turning to `O=C(Nc1nc(-c2cc(F)ccc2F)cs1)c1ccccn1`, the IC50 was 2.28 µM.
Turning to `O=C(OCn1nnc2ccccc2c1=O)c1cccs1`, the IC50 was 12.4 µM (inactive).
As for `O=C(CN1CCN(c2ccc([N+](=O)[O-])cc2)CC1)Nc1ccccn1`, the IC50 is 30.8 µM (inactive).
The figure for `CCCCN(CC)S(=O)(=O)c1ccc(C(=O)Nc2nnc(-c3cccs3)o2)cc1` is 11.3 µM (inactive); for `O=C(CCN1CCC(c2cccs2)=N1)c1cccs1` it is 4.15 µM.
The same measure for `O=[N+]([O-])c1cc(N=Nc2ccc3ccccc3c2)ccc1O`: 10.2 µM (inactive).
Turning to `O=C(COC(=O)Cc1ccc(Br)cc1)Nc1ccc(N2CCOCC2)cc1`, the IC50 is 39.1 µM (inactive).
Consider `O=c1c(=Nc2ccccc2O)c(=O)c2ccccc12`, for which the IC50 was 2.73 µM.
For `COc1ccccc1N1CCN(C(=O)c2ccc([N+](=O)[O-])s2)CC1`, the IC50 was 5.97 µM.
With `CCOC(=O)c1ccc(NC(=O)CCSCCc2ccccn2)cc1`, the IC50 was 23.4 µM (inactive).
Take `CCCCCCn1c(=O)c(C(=O)Nc2nnc(C)s2)c(O)c2ccccc21`: the IC50 is 4.29 µM.
Take `Fc1cccc2sc(N3CCCC3)nc12`: the IC50 is 23.1 µM (inactive).
Regarding `COc1ccc(NC(=O)c2cc3ccccc3o2)cc1`, the IC50 was 5.57 µM.
As to `Cc1cccc(OC(=O)c2sc3ncn(C)c(=O)c3c2C)c1`, the IC50 was 4.61 µM.
As for `O=C(Nc1ccccc1F)c1ccc(CSc2ccccc2)o1`, the IC50 was 4.4 µM.
For the compound `CSc1ccc(N=Nc2c(C)[nH]n(C)c2=O)cc1`, the IC50 is 20.6 µM (inactive).
Take `O=[N+]([O-])c1ccc(-c2nc3ccc([N+](=O)[O-])cc3[nH]2)cc1`: the IC50 was 16 µM (inactive).
For `Cc1ccnc(NC(=O)COc2ccc3c(c2)CCC3)c1`, the IC50 is 1.7 µM.
As for `CN1CC=C(/C=C/c2ccc(-c3ccccc3)cc2)CC1`, the IC50 is 11.4 µM (inactive).
As for `O=C(COC(=O)c1cc(Cl)ccc1O)c1ccc2c(c1)OCO2`, the IC50 was 6.61 µM.
Regarding `O=C(OCc1ccc([N+](=O)[O-])cc1)c1ccc2ccccc2n1`, the IC50 was 4.44 µM.
As to `O=C(CC(=O)c1ccccc1O)c1cccc(F)c1`, the IC50 is 8.89 µM.
`O=C(N/N=C/c1cc([N+](=O)[O-])ccc1O)C12CC3CC(CC(C3)C1)C2`: the IC50 is 1.15 µM.
Consider `COC(=O)C1=C(C(=O)OC)C(c2cc(Cl)ccc2O)c2sc(=O)[nH]c2S1` (stereo unspecified), for which the IC50 is 34.9 µM (inactive).
On to `COC(=O)COc1ccc(-c2ccc(F)cc2)cc1C=O`, for which the IC50 was 5.82 µM.
As to `O=C(COc1ccccc1)NCCSCc1ccc(Cl)cc1`, the IC50 was 16.4 µM (inactive).
Turning to `O=C(C/C=N\OCc1ccc([N+](=O)[O-])cc1)Nc1ccccc1`, the IC50 is 4.57 µM.
The figure for `CCOC(=O)C1CCN(C(=O)COc2cc(C)c(Br)c(C)c2)CC1` is 18.3 µM (inactive); for `Cc1[nH][nH]c(=O)c1C(c1ccc(-c2ccc(F)cc2)o1)c1c(C)[nH][nH]c1=O` it is 8.5 µM; for `CCOC(=O)CCS(=O)(=O)c1nc(-c2ccccc2)cc(C(F)(F)F)n1` it is 0.99 µM.
As for `CN(C)CCCNc1cc(C(C)(C)C)nc2c(-c3ccc(Cl)cc3)cnn12`, the IC50 was 5.24 µM.
As to `COc1ccc(NC(=O)c2ccc(-c3ccc([N+](=O)[O-])cc3)o2)cc1OC`, the IC50 was 3.93 µM.
Regarding `O=C(OCC(=O)C12CC3CC(CC(C3)C1)C2)c1ccccn1`, the IC50 is 9.38 µM.
In the case of `O=C(CC1CC2CCC1C2)NCc1cccs1` (stereo unspecified), the IC50 was 1.69 µM.
Turning to `C/C(=N\O)c1cc(Cl)ccc1O`, the IC50 is 2.42 µM.
As for `CC(C)c1ccc(C2=C(O)c3ccccc3C(=O)C2=O)cc1`, the IC50 was 3.7 µM.
The same measure for `O=Cc1c(NCc2ccco2)nc2ccccn2c1=O`: 4.93 µM; for `CCCc1cc(NCCCn2ccnc2)n2nc(C)c(-c3ccccc3)c2n1`: 19.5 µM (inactive); for `COc1ccc(NC(=O)c2cnc(SC)nc2)cc1`: 28.9 µM (inactive).
The same measure for `COc1ccc(COC(=O)CCNC(=O)c2ccc(Cl)cc2)cc1`: 8.25 µM; for `O=C(Nc1cccc(Cl)c1N1CCCC1)c1ccc([N+](=O)[O-])o1`: 12 µM (inactive); for `CC(C)(C)/C(O)=C/c1nc2ccccc2oc1=O`: 6.85 µM.
For `Cc1ccc(S(=O)(=O)N2CCC(C(=O)OCc3ccccc3)CC2)cc1C`, the IC50 is 9.82 µM.
As for `S=C1SCN(Cc2ccco2)CN1Cc1ccco1`, the IC50 was 14.1 µM (inactive).
`Cc1ccc(NC(=O)C2COc3ccccc3O2)nc1` (stereo unspecified): the IC50 is 6.26 µM.
Regarding `CC1(C)CC(=O)C2=C(C1)OC(N)=C(C#N)C2C#Cc1ccccc1` (stereo unspecified), the IC50 was 4.07 µM.
`CCOC(=O)C1=C(c2ccccc2)NC(N)=NC1c1ccc(OCc2ccc(C(=O)OC)cc2)cc1` (stereo unspecified): the IC50 was 5.85 µM.
For the compound `Cn1c(O)c(C(=Nc2ccccc2)SCc2ccccc2Cl)c(=O)n(C)c1=O`, the IC50 is 8.25 µM.
Take `Clc1ccccc1CSc1nnc([C@@H]2CCCN2)o1`: the IC50 is 12.2 µM (inactive).
`CC(=O)c1ccc(C(=O)Nc2nnc(-c3ccc(Cl)cc3)o2)cc1`: the IC50 is 4.03 µM.
The figure for `O=C(CCS(=O)(=O)c1ccccc1)Nc1nnc(-c2ccco2)o1` is 7.69 µM.
For the compound `CCCNC(=O)N1CCC(c2ccc3c(c2)OCO3)CC1`, the IC50 is 4.71 µM.
`CCOC(=O)c1cc([N+](=O)[O-])c([N+](=O)[O-])cc1NC(C)=O`: the IC50 was 2.44 µM.
Take `CCOC(=O)C1(O)CC(C)=NN1C(=O)c1cccc(Br)c1` (stereo unspecified): the IC50 was 1.42 µM.
Regarding `O=C(Oc1ccccc1)c1ccc(NC(=O)c2ccco2)cc1`, the IC50 is 7.33 µM.
`Cc1ccnc(-n2c(C)cc(/C=C3\C(=O)NC(=S)N(C)C3=O)c2C)c1`: the IC50 is 25.7 µM (inactive).
Turning to `CN(/N=C/c1ccc([N+](=O)[O-])o1)c1ccccc1`, the IC50 is 13.4 µM (inactive).
The same measure for `O=C(COc1ccc2ccccc2c1Br)N1CCCC1`: 0.56 µM; for `O=C(Nc1nnc(-c2ccc(Br)cc2)o1)c1ccco1`: 11.4 µM (inactive); for `CCNC(=O)NC(=O)C(C)OC(=O)CCCSc1nc2ccccc2s1` (stereo unspecified): 4.68 µM.
As to `COc1ccccc1NC(=O)c1ccc([N+](=O)[O-])o1`, the IC50 is 1.12 µM.
`COc1ccc(OCC(=O)Nc2ccc(N3CCN(C(=O)c4ccco4)CC3)cc2)cc1`: the IC50 is 20.8 µM (inactive).
On to `C=CCc1cc(Cl)ccc1OCCCn1ccnc1`, for which the IC50 is 8.18 µM.
In the case of `CCOC(=O)c1ccc(-n2c(CCC(=O)O)ccc2-c2cccs2)cc1`, the IC50 was 36.2 µM (inactive).
The figure for `O=C(O)c1ccc(NS(=O)(=O)/C=C/c2ccccc2)cc1O` is 3.11 µM.
Regarding `CCCOC(=O)c1ccc(NC(=O)C2C3C=CC(O3)C2C(=O)O)cc1` (stereo unspecified), the IC50 was 9.27 µM.
On to `CSc1ccc(C(=O)C2CCCN(Cc3cc4ccccc4[nH]3)C2)cc1` (stereo unspecified), for which the IC50 was 11.1 µM (inactive).
Turning to `CC(C)CNc1nc(=S)nc(N(C)C)[nH]1`, the IC50 is 11.5 µM (inactive).
Take `Cc1ccc(-c2cc(C(F)F)nc(S(C)(=O)=O)n2)cc1`: the IC50 is 6.96 µM.
Take `CC(C)(C)OC(=O)NCCc1nnc(S(=O)(=O)Cc2ccc(Cl)cc2Cl)o1`: the IC50 was 4.85 µM.
For the compound `COC(=O)c1cccc(NC(=O)COc2cccc([N+](=O)[O-])c2)c1`, the IC50 is 7.11 µM.
The same measure for `CC(C)c1ccc(N2C(=O)CC(Sc3ncn[nH]3)C2=O)cc1` (stereo unspecified): 11.2 µM (inactive).
The same measure for `COCCSc1nnc(NC(=O)CCS(=O)(=O)Cc2ccccc2)s1`: 5.14 µM; for `O=C(O)c1[nH]c(=O)[nH]c(=O)c1F`: 5.7 µM.
Take `N#CC(C(=O)NCc1ccco1)c1nc2ccccc2nc1N1CCOCC1` (stereo unspecified): the IC50 was 15.9 µM (inactive).
In the case of `CCCn1nnnc1NC(=O)COc1ccc(Br)cc1`, the IC50 was 4.62 µM.
Regarding `Cc1cc(NC(=O)COC(=O)COc2ccc(C(=O)c3ccccc3)cc2)no1`, the IC50 is 18.3 µM (inactive).
With `CC1=NNC(=O)/C1=C\c1cn(-c2ccccc2)nc1-c1ccccc1`, the IC50 is 7.73 µM.
Consider `O=C(CC1CCCCC1)NCc1ccccc1`, for which the 50% inhibitory concentration (IC50) was 5.92 µM.
`CN(C)Cc1ccccc1Sc1ccc(Br)cc1`: the IC50 is 27.7 µM (inactive).
The same measure for `NC(=O)N/N=C\c1cc(Br)ccc1O`: 4.2 µM; for `Clc1ccccc1OCc1nnc(-c2ccccc2)o1`: 4.35 µM; for `CCCc1cc(C(=O)Nc2cccc(C(C)=O)c2)no1`: 10.2 µM (inactive).
For the compound `COC(=O)CCn1c(C)cc(C(=O)COc2ccccc2C(N)=O)c1C`, the IC50 was 9.88 µM.
For `CCOc1cc(C=O)cc(N=Nc2cccc([N+](=O)[O-])c2)c1O`, the IC50 is 1.31 µM.
With `COC(=O)c1ccccc1NC(=O)C1CC(c2ccc(F)cc2)=NO1` (stereo unspecified), the IC50 is 10.2 µM (inactive).
As for `CCCCOc1ccc(NC(=O)CN2CCN(Cc3ccccc3)CC2)cc1`, the IC50 is 25.6 µM (inactive).
Consider `CN1C(=O)N(C)c2ccc(C=O)c3cccc1c23`, for which the IC50 was 3.65 µM.
On to `CCCCN(C/C=C/c1ccccc1OC)Cc1ccccc1`, for which the IC50 is 8.78 µM.
With `c1ccc(/N=C2\N=C(Nc3ccccn3)c3ccccc32)nc1`, the IC50 is less than 0.1 µM.
Consider `CCOc1ccc(C(=O)Nc2nnc(C3=COCCO3)o2)cc1`, for which the IC50 is 22.2 µM (inactive).
As to `COC(=O)c1ccc(Sc2nnnn2-c2ccccc2)c([N+](=O)[O-])c1`, the IC50 was 7.81 µM.
Consider `FC(F)(F)c1ccc(-c2nnc(-c3cccnc3)o2)cc1`, for which the IC50 was 6.48 µM.
On to `c1ccc(C2=Nc3ccccc3OC2)cc1`, for which the IC50 was 4.54 µM.
Take `CCC1CCCCN1S(=O)(=O)c1ccc(C(=O)Nc2nnc(-c3cccs3)o2)cc1` (stereo unspecified): the IC50 is 11 µM (inactive).
The figure for `COc1cc(Cl)cc(/C=N/NC(N)=O)c1O` is 10.2 µM (inactive).
`O=C(OCc1nc2ccccc2s1)c1ccc(Br)o1`: the IC50 was 3.63 µM.
